Results on one compound are retold here after patent US9844578B2, “Accelerated healing of eye injuries by angiotensin peptides” (UNIVERSITY OF SOUTHERN CALIFORNIA, priority 2013, dated 2017).

This data set deals with full-thickness corneal incision. The conditions noted are these: rabbit, in vivo. How it is done: Animal Preparation and Procedure:
Before each procedure, the rabbits were anesthetized with a subcutaneous injection of a mixture of ketamine hydrochloride (50-80 mg/kg) and xylazine hydrochloride (5-9 mg/kg). The animal was prepared for sterile surgery conducted under aseptic conditions. Periorbital area was cleaned using 5% povidone iodine solution and a drop of this solution was instilled into the fornix and a speculum was used to hold the eyelids open. Using corneal blade (Keratome 3.2 mm), a clear corneal full-thickness tunnel was created in the same manner as in human phacoemulsification surgery. To prevent the globe collapse after corneal tunnel creation, a small amount of viscoelastic was injected in the anterior chamber through a paracentesis. Gentamicin 25 mg, and dexamethasone 2 mg were injected subconjunctivally. Post-operatively, analgesia was administered. Animals allocated to the treatment group were treated with 1 drop (approximately 50 μl) of the active drug (0.03% or 0.3% Nle3 A(1-7) in 2% hydroxyethyl cellulose in 0.05 M phosphate buffer, pH 6.5) under investigation instilled into the conjunctival sac daily (using a dropper throughout the follow-up period. On the other hand, animals allocated to the control group will be treated with vehicle (2% hydroxyethyl cellulose in 0.05 M phosphate buffer, pH 6.5) eyedrops daily throughout the follow-up period.
These ocular follow-up examinations were done while the animal was under anesthesia as described above. Anterior segment imaging includes red free picture and anterior segment fluorescein imaging using Spectralis (Heildelberg Engineering, Germany) where sequential photos are taken after one drop of 10% fluorescein (Akorn Abit Springs, La.) was instilled in the conjunctival sac and a slight pressure was applied to the globe. This is more commonly known as Seidel's test in which fluorescein strip containing 10% fluorescein was applied topically to the affected area and was examined with a cobalt blue filter. At this point, the fluorescein appears green in color. Any changes in color or surface of the fluorescence area indicate the presence of conical leakage. This imaging data were used to assess the degree of corneal wound healing as well as extent of wound leak. Measurement of the intraocular pressure was performed using Tonopen-AVIVA (TPA, Reichert Inc.).
The injury was also imaged using involved using a Heidelberg Retina Tomograph (HRT) instrument. This is a confocal scanning laser ophthalmoscope which was converted into a confocal corneal microscope using an additional microscope lens which attached to the standard lens. This additional lens enabled the HRT to image cells and cell layers within the cornea to allow an in-life phase assessment of the healing and structure of the cornea to allow detailed views of the conical structure and pathology.

Residues, ends and D or L forms follow the SMILES beside them.

For the compound `CCCC[C@H](NC(=O)[C@H](CCCNC(=N)N)NC(=O)[C@@H](N)CC(=O)O)C(=O)N[C@@H](Cc1ccc(O)cc1)C(=O)N[C@H](C(=O)N[C@@H](Cc1c[nH]cn1)C(=O)N1CCC[C@H]1C(=O)O)[C@@H](C)CC` [Nle3-A(1-7), Asp-Arg-Nle-Tyr-Ile-His-Pro] (HELM PEPTIDE1{D.R.[Nle].Y.I.H.P}$$$$V2.0), the Complications result is “None”, the “Fundus Exam & Fluorescein angiography” value is given as “Normal”, the IOP result is listed as “Normal” and the “change in intraocular pressure” value is recorded as “no change”. Moreover, the “fundus examination and fluorescein angiography” value is “normal”.
